According to patent US5028587A, “Mixed crystals of insulin and insulin derivatives” (Hoechst Aktiengesellschaft, priority 1987, dated 1991):

Legend:
[1] = specific activity of the insulin used; conditions: specific activity of the substance used for crystallization
[2] = isoelectric point by isoelectric focusing; assay type: physicochemical; conditions: pH
Excerpt: It is common to all these insulin derivatives that the additional positive charge(s) which is(are) located on the surface of the molecule confer on the molecule an isoelectric point which is displaced into the neutral range. Depending on the derivative, the isoelectric points measured by isoelectric focusing are from about 5.8 to about 8.5, in particular about 6.2 to about 8.2. This means that the derivatives are less soluble in the neutral range than is unmodified insulin, whose isoelectric point, and thus whose region of maximum insolubility, is at a pH of about 5.4, whereas it is normally in dissolved form in the neutral range.

[3] = cited from earlier work

Substance: Human insulin
- activity [1]: 27 I.U./mg

Substance: insulin [unmodified insulin]
- isoelectric point [2]: about 5.4
- in vivo half-life [3]: about 7 minutes

Substance: Arg2 -(B31-32) human insulin
- activity [1]: 27 I.U./mg

Substance: Arg-B31 human insulin
- activity [1]: 27 I.U./mg
